Laboratory results from patent US4659732A, “Lipoxygenase inhibiting 1-arylalkyl-, 1-arylthio-, and 1-aryloxypyrazole-4,5-diones” (Bayer Aktiengesellschaft, priority 1984, dated 1987).

Key:
leucocyte stickiness = assay: Stickiness of leucocytes in hamster cheek pouch; format: in vivo, Male Syrian golden hamsters; conditions: Effect after administration of 1 mg/kg i.a.
Description: The reduction in the leucocyte stickiness is also responsible for the decrease in ischaemic areas since, after treatment with the compounds to be used according to the invention, the leucocytes pass through the microcirculatory region of these areas without reducing the supply to the corresponding tissue by totally or temporarily closing small vessels or capillaries.
The number of leucocytes which pass through a certain section of a vessel serves as a simple model for measuring the stickiness of leucocytes (Bray, M. A. et al., Prostaglandins, 22, 213, 1981). The less sticky these cells are, the greater is the number of leucocytes counted.
Male Syrian golden hamsters (80-100 g) were anaesthetized with nembutal (i.p.; 60 mg/kg). After fixing a PE 10 catheter in the A.femoralis, the animal is laid on a Duling dissection stage (MVR 5, 423, 1973) and the right cheek pouch is drawn out by inserting a Q-tip. It is carefully drawn into that part of the stage which is intended for this purpose, and is stretched out and fixed. From the beginning of the preparation procedure, the prepared cheek pouch is rinsed over with 5 ml/minute of superfusate. The temperature of the solution is 36° C. While protecting the vessels, the upper layer of tissue is cut longitudinally and folded to the side. Under about 200 times magnification, an area of about 1 cm^2 of connective tissue is carefully exposed. The animal, together with the dissection stage, is placed on the microscope stage. A thermocouple is inserted into the left cheek pouch. The body temperature of the animal is monitored in this manner and maintained within +0.3° C. with the aid of an IR lamp (240 watt).
Measurement of the leucocyte stickiness is carried out under a magnification of about 500 times. A small vein (30-40 μm .phi.) is selected in the exposed area. Over a certain section of this vessel, the number of leucocytes passing by per unit time (min.) is counted.

5-lipoxygenase = molecular target: T1, 5-lipoxygenase (Homo sapiens, UniProt P09917); assay: Inhibition of LTB4 synthesis in human PMN leucocytes (A 23 187 stimulated); format: cell-based; conditions: for inhibition at 0.5 µg/mL: 0.5 μg/ml; for inhibition at 1 µg/mL: 1 μg/ml; for inhibition at 5 µg/mL: 5 μg/ml; for inhibition at 0.1 µg/mL: 0.1 μg/ml
T1 construct: The human polymorphonuclear leucocytes metabolize the arachidonic acid to give 5-hydroxy-5,8,11,14-eicosatetraenoic acid (5-HETE) and leucotriene B4; endogenous in cells; host or cells: human PMN leucocytes from heparinized whole blood
T1 sequence (P09917 1-674): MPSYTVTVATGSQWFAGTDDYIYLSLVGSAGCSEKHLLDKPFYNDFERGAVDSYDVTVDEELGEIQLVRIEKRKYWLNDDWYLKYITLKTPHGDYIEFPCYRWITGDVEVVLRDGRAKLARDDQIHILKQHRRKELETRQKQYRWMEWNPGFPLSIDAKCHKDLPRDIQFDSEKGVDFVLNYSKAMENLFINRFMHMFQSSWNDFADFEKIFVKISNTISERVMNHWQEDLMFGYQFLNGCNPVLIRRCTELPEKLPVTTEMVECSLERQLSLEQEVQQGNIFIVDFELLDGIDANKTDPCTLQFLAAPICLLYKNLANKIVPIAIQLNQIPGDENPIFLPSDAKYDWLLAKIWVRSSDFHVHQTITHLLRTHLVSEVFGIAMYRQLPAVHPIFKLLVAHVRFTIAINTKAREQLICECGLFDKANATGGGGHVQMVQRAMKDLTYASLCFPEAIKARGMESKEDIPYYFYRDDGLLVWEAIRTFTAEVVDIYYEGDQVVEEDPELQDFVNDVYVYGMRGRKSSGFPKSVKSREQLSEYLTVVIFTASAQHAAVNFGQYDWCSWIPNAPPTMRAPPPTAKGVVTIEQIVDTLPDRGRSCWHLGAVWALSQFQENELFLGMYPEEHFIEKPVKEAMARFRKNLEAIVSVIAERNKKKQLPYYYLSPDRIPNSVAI
Procedure: The 5-lipoxygenase responsible for the biosynthesis of the leucotrienes B4, C4 and D4 is inhibited selectively at low concentrations. […] Inhibition of the liberation of 5-HETE and leucotriene B4 from the leucocytes constitutes a measure of the lipoxygenase-inhibiting effect of the compounds according to the invention (see Table 1). The test with the human leucocytes was carried out in accordance with Borgeat and Samuelsson (J. Biol. Chem. 254, 2643, 1979, and Proc. Natl. Acad. Sci. USA, 76, 2148, 1979). The human PMN leucocytes (>95%) used in the present example were obtained from heparinized whole blood by dextran sedimentation and subsequent density gradient separation (Ficoll-Paque) (see A. Boyum, Scand. J. Immunol., 5, Suppl. 5, 9, 1976). 2×10^7 cells/ml were suspended in Ca^2+ -containing Dulbecco phosphate buffer and stimulated in the presence and absence of lipoxygenase inhibitors, with the calcium ionophore A 23 187. After 15 minutes, the lipoxygenase products were extracted from the acidified incubation medium and separated by means of HPLC.

myocardial infarct = assay: Myocardial infarct after acute ligature of a coronary artery; format: in vivo; conditions: dog
Procedure: The actions of various pyrazoledione derivatives on the experimental myocardial infarct in the dog were investigated after acute ligature of a coronary artery. In pentobarbital-anaesthetised dogs, the proximal left anterior descending coronary artery (LAD) […] occluded for 6 hours. The artery was not reperfused. One hour prior to ligature, the test compounds in 1% tyclose suspension were administered intraduodenally as a bolus. The same procedure was adopted for the controls, except that no active compound was administered. The size of the infarct and the area of perfusion of the LAD were determined biochemically by means of a dual perfusion method using Evans Blue and triphenyltetrazolium chloride. […] This could be observed both with respect to the absolute infarct weight and the infarct size relative to the weight of the left ventricule. Initially, the blood pressure decreased as a result of the coronary ligature, and this led to a reflectory increase in the heart rate.

cyclooxygenase = conditions: known lipoxygenase inhibitors; cited from earlier work
[1] = administered systemically (for example orally); cited from earlier work

inhibition at 0.5 µg/mL (5-lipoxygenase) [%] | inhibition at 1 µg/mL (5-lipoxygenase) [%] | inhibition at 5 µg/mL (5-lipoxygenase) [%] | haemodynamic effects (myocardial infarct; LAD ligature, intraduodenal) | inhibition at 0.1 µg/mL (5-lipoxygenase) [%] | SMILES | Inhibition of leucocyte stickiness (leucocyte stickiness) | infarct size (myocardial infarct; gradual LAD occlusion 6 hours, intraduodenal bolus one hour prior to ligature, absolute infarct weight and relative to left ventricle weight) | cyclooxygenase inhibition (cyclooxygenase) | toxic side effects [1]
10 | 21 | 100 | – | – | CC1=NN(C(C)c2ccc3c(c2)CCCC3)C(=O)C1=O (stereo not drawn) [Example 7] | inhibition | – | – | –
10 | 35 | 100 | – | – | O=C1C(=O)N(CCOc2ccc3ccccc3c2)N=C1CC1CCCCC1 [Example 8] | no action | – | – | –
– | – | – | no haemodynamic effects | – | C1=CSc2ccccc2N1 [4H-1,4-benzothiazine] | – | substantially reduced the infarct size | – | –
– | – | – | – | – | CC(Cc1ccc(O)c(O)c1)C(C)Cc1ccc(O)c(O)c1 (stereo not drawn) [nordihydroguaretic acid] | – | – | act as cyclooxygenase inhibitors either simultaneously or only at very high concentrations | –
12 | 56 | 100 | – | – | CCCC1=NN(CCOc2ccc3ccccc3c2)C(=O)C1=O [Example 10] | inhibition | – | – | –
60 | 88 | 100 | – | 38 | CC1=NN(CCOc2ccccc2)C(=O)C1=O [Example 6] | no effect | – | – | –
20 | 37 | 100 | – | 6 | COCC1=NN(C(C)c2ccc(Cl)c(Cl)c2)C(=O)C1=O (stereo not drawn) [Example 3] | no effect | – | – | –
– | 40 | 73 | – | – | CC1=NN(C(C)c2cccc(C(F)(F)F)c2)C(=O)C1=O (stereo not drawn) [Example 9] | no effect | – | – | –
12 | 29 | 84 | – | – | CC1=NN(C(C)c2ccc(Cl)c(Cl)c2)C(=O)C1=O (stereo not drawn) [Example 5] | no action | – | – | –
– | – | – | – | – | O=C1CCN(c2ccccc2)N1 [phenidone] | – | – | act as cyclooxygenase inhibitors either simultaneously or only at very high concentrations | –
60 | 85 | 100 | – | 29 | CC1=NN(CCOc2ccc3ccccc3c2)C(=O)C1=O [Example 1, 3-Methyl-1-[2-(2-naphthyloxy)-ethyl]-2-pyrazole-4,5-dione] | inhibition | – | – | –
– | – | – | – | – | CCCCCC=CCC=CCC=CCC=CCCCC(=O)O [5,8,11,14-eicosatetraenoic acid] | – | – | act as cyclooxygenase inhibitors either simultaneously or only at very high concentrations | –
– | 12 | – | – | – | CC(C)(C)C1=NN(CCOc2ccccc2)C(=O)C1=O [Example 2] | inhibition | – | – | –
47 | 60 | 100 | – | 15 | COCC1=NN(CCOc2ccc3ccccc3c2)C(=O)C1=O [Example 4] | inhibition | – | – | –
– | 29 | 32 | – | – | CC1=NN(C(C)C2CCCCC2)C(=O)C1=O (stereo not drawn) [Example 11] | inhibition | – | – | –
– | – | – | – | – | NC1=NN(c2cccc(C(F)(F)F)c2)CC1 [3-amino-1-(3-trifluoromethylphenyl)-2-pyrazoline] | – | – | act as cyclooxygenase inhibitors either simultaneously or only at very high concentrations | toxic side effects
